{
  "source": "paper PMC7394244",
  "about": "(Journal of medicinal chemistry, 2020)",
  "key": {"Pf3D7 cells": {"test_system": "Pf3D7 cells", "assay": "P. falciparum 3D7 growth inhibition", "type": "cell-based"}, "hERG": {"biological_target": "hERG (Homo sapiens, UniProt Q12809)", "sequence (Q12809 whole entry)": "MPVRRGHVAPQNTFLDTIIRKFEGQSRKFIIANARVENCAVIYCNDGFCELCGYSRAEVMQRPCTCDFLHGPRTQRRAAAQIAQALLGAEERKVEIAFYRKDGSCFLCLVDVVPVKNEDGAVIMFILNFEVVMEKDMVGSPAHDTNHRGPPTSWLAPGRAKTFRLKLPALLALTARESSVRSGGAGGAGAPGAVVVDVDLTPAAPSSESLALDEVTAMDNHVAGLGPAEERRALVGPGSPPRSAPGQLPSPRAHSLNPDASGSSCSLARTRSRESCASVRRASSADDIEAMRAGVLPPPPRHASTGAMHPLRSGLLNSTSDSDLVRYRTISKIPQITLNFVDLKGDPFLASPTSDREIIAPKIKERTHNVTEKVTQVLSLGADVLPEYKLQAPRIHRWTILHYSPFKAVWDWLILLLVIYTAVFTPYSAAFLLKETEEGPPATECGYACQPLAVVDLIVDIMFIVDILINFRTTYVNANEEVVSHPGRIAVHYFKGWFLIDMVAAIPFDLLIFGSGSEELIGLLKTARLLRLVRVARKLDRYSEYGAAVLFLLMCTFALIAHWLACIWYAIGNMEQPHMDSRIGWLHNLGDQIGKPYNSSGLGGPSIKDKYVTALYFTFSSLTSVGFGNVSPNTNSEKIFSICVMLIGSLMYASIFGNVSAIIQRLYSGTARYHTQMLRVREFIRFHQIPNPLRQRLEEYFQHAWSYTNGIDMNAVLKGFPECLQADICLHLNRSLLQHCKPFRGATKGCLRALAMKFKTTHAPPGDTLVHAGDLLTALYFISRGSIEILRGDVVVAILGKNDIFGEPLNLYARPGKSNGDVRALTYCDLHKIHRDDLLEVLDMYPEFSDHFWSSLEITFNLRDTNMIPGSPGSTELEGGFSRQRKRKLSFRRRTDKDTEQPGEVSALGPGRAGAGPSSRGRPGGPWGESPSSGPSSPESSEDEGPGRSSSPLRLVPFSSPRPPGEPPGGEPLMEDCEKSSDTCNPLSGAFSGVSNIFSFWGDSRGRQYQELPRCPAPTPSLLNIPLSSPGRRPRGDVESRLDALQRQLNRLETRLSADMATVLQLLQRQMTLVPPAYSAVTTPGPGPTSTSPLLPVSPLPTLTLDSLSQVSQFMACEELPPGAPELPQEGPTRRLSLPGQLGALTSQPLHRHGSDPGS", "assay": "hERG IonWorks patch clamp electrophysiology", "type": "cell-based"}, "KV1.5 K+": {"biological_target": "KV1.5 K+ (Homo sapiens, UniProt P22460)", "sequence (P22460 whole entry)": "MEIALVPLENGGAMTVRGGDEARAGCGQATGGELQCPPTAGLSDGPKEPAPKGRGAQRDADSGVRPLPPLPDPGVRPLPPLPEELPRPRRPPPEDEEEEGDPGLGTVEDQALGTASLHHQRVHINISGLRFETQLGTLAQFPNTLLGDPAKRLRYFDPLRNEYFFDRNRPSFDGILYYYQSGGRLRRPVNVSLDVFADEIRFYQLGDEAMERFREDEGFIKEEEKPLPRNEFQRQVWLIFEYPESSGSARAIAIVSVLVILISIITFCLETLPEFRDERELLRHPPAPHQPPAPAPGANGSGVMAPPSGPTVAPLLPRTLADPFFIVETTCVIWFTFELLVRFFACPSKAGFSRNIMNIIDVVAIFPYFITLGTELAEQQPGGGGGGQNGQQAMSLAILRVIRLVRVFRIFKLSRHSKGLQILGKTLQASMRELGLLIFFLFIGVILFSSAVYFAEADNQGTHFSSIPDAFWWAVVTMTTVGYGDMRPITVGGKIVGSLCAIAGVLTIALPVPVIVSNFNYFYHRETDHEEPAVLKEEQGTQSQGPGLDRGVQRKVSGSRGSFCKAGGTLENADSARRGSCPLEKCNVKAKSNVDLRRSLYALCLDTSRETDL", "assay": "Potassium channel IonWorks patch clamp electrophysiology", "type": "cell-based"}, "Plasma protein binding [1]": {"assay": "Plasma protein binding", "type": "in vitro ADME", "conditions": "human plasma"}, "Plasma protein binding [2]": {"assay": "Plasma protein binding", "type": "in vitro ADME", "conditions": "rat plasma"}, "Plasma protein binding [3]": {"assay": "Plasma protein binding", "type": "in vitro ADME", "conditions": "mouse plasma"}, "Albumax medium binding": {"assay": "Albumax medium binding", "type": "in vitro ADME"}, "Microsome binding": {"assay": "Microsome binding", "type": "in vitro ADME, human"}, "[4]": {"assay": "Blood exposure in P. falciparum-infected SCID mice", "type": "in vivo", "conditions": "NOD-scidIL2Rγnull, mouse, whole blood, po"}, "in vivo": {"assay": "in vivo", "conditions": "male, Swiss outbred, mouse, plasma, iv"}, "P. falciparum Dd2": {"test_system": "P. falciparum Dd2", "conditions": "read-out: EC50 Dd2 (parental); cited from earlier work"}, "[5]": {"conditions": "human liver microsomes; cited from earlier work"}, "[6]": {"conditions": "mouse liver microsomes; cited from earlier work"}, "[7]": {"conditions": "rat liver microsomes; cited from earlier work"}, "[8]": {"conditions": "human plasma; cited from earlier work"}, "[9]": {"conditions": "rat plasma; cited from earlier work"}, "[10]": {"conditions": "mouse plasma; cited from earlier work"}, "[11]": {"conditions": "cited from earlier work"}, "[12]": {"conditions": "cited from earlier work", "remark": "listed apart in the source"}, "[13]": {"conditions": "cited from earlier work", "remark": "listed apart in the source"}, "[14]": {"conditions": "cited from earlier work", "remark": "listed apart in the source"}, "R10C1B": {"test_system": "R10C1B", "assay": "microbe, parasite or virus in culture", "conditions": "Plasmodium falciparum, read-out: EC50 R10C1B"}, "R1BC1A": {"test_system": "R1BC1A", "assay": "microbe, parasite or virus in culture", "conditions": "Plasmodium falciparum, read-out: EC50 R1BC1A"}, "R2B": {"test_system": "R2B", "assay": "microbe, parasite or virus in culture", "conditions": "Plasmodium falciparum, read-out: EC50 R2B"}, "[15]": {"assay": "In vitro metabolism, mouse liver microsomes"}, "PfDHODH": {"biological_target": "T1, PfDHODH (Plasmodium falciparum, UniProt Q08210)", "T1 sequence (Q08210 24-569)": "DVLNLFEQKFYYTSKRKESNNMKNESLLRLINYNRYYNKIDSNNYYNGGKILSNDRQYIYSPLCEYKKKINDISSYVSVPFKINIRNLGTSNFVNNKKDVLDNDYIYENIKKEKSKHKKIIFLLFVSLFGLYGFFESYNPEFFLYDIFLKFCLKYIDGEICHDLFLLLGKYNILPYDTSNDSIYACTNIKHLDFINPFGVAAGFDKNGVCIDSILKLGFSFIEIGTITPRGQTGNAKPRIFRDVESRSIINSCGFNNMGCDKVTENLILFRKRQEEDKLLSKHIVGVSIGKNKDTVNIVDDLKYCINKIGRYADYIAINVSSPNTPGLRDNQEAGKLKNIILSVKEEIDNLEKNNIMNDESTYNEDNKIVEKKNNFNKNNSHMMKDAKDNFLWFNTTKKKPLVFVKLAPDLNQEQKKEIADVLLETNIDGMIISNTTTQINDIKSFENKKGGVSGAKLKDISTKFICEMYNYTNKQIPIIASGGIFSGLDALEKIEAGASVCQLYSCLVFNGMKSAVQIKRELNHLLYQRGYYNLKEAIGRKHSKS", "assay": "biochemical", "set-up": "species or system P. falciparum"}, "[16]": {"conditions": "Plasmodium falciparum, read-out: EC50 Pf3D7 cells"}, "[17]": {"conditions": "Plasmodium falciparum, read-out: potency on Pf3D7 parasites"}},
  "note": "Where “and” joins values, the source holds several entries; their conditions need not be identical. Equal values may be shown once. Read-outs that look alike come from different tables or passages of the source.",
  "data": [
    {"compound": "CCOC(=O)c1[nH]c(C)c(Cc2ccc(C(F)(F)F)cc2)c1C", "note": "[Compound 4, Ethyl 3,5-dimethyl-4-(4-(trifluoromethyl)benzyl)-1H-pyrrole-2-carboxylate]", "values": [
      {"measurement": "EC50", "setting": "Pf3D7 cells; [16]", "value": 61, "unit": "nM"},
      {"measurement": "EC50", "setting": "Pf3D7 cells; read-out: EC50 Pf3D7 cells", "value": 71, "unit": "nM"}
    ]},
    {"compound": "Cc1c(Cc2ccc(C(F)(F)F)nc2)c[nH]c1C(=O)NC1CC1", "note": "[Compound 37]", "values": [
      {"measurement": "Human Ion Channel activity hERG", "setting": "hERG", "value": ">33", "unit": "µM"},
      {"measurement": "Human Ion Channel activity KV1.5 K+", "setting": "KV1.5 K+", "value": ">11", "unit": "µM"},
      {"measurement": "H plasma protein binding", "setting": "Plasma protein binding [1]", "value": 90, "unit": "% bound"},
      {"measurement": "R plasma protein binding", "setting": "Plasma protein binding [2]", "value": 88.2, "unit": "% bound"},
      {"measurement": "M plasma protein binding", "setting": "Plasma protein binding [3]", "value": "88 % bound and 88.9 % bound"},
      {"measurement": "Albumax binding", "setting": "Albumax medium binding", "value": 51.8, "unit": "% bound"},
      {"measurement": "Microsome binding", "setting": "Microsome binding", "value": 29.9, "unit": "% bound"},
      {"measurement": "AUC(0-t)", "setting": "[4]; 10 mg/kg", "value": 680, "unit": "ng·h/mL"},
      {"measurement": "AUC(0-t)", "setting": "[4]; 50 mg/kg", "value": 8600, "unit": "ng·h/mL"},
      {"measurement": "Cmax", "setting": "[4]; 50 mg/kg", "value": 2520, "unit": "ng/mL"},
      {"measurement": "clearance at 24 h", "setting": "in vivo", "value": 26.1, "unit": "mL/min/kg"}
    ]},
    {"compound": "Cc1c(Cc2ccc(C(F)(F)F)cc2F)c[nH]c1C(=O)NC1CC1", "note": "[Compound 60, N-Cyclopropyl-4-(2-fluoro-4-(trifluoromethyl)benzyl)-3-methyl-1H-pyrrole-2-carboxamide]", "values": [
      {"measurement": "EC50", "setting": "Pf3D7 cells; [17]", "value": "< 30", "unit": "nM"}
    ]},
    {"compound": "Cc1cc(Nc2ccc(S(F)(F)(F)(F)F)cc2)n2nc(C(C)(F)F)nc2n1", "note": "[Compound 1]", "values": [
      {"measurement": "EC50", "setting": "P. falciparum Dd2", "value": 4.6, "unit": "nM"},
      {"measurement": "H CLint", "setting": "[5]", "value": "<7 / <7 / <7 μL/min/mg"},
      {"measurement": "M CLint", "setting": "[6]", "value": "<7 / <7 / <7 μL/min/mg"},
      {"measurement": "R CLint", "setting": "[7]", "value": "<7 / <7 / <7 μL/min/mg"},
      {"measurement": "H plasma protein binding", "setting": "[8]", "value": 99.9, "unit": "% bound"},
      {"measurement": "R plasma protein binding", "setting": "[9]", "value": 97.0, "unit": "% bound"},
      {"measurement": "M plasma protein binding", "setting": "[10]", "value": 99.7, "unit": "% bound"},
      {"measurement": "Albumax binding", "setting": "[11]", "value": 83.1, "unit": "% bound"},
      {"measurement": "Microsome binding", "setting": "[12]", "value": 71.7, "unit": "% bound"},
      {"measurement": "human half-life", "setting": "[13]", "value": "~ 100 hours"},
      {"measurement": "Solubility FeSSIF (pH 5.8)", "setting": "[14]", "value": 27.6, "unit": "μg/mL"},
      {"measurement": "EC50", "setting": "R10C1B", "value": 120, "unit": "nM"},
      {"measurement": "EC50", "setting": "R1BC1A", "value": 80, "unit": "nM"},
      {"measurement": "EC50", "setting": "R2B", "value": 74, "unit": "nM"},
      {"measurement": "microsomal CLint at 1 μM", "setting": "[15]", "value": 8, "unit": "µL/min/mg"}
    ]},
    {"compound": "Cc1c(Cc2ccc(C(F)(F)F)nc2)c[nH]c1C(=O)NCC(F)(F)F", "note": "[Compound 39, 3-Methyl-N-(2,2,2-trifluoroethyl)-4-((6-(trifluoromethyl)pyridin-3-yl)methyl)-1H-pyrrole-2-carboxamide]", "values": [
      {"measurement": "EC50", "setting": "Pf3D7 cells; [16]", "value": 44, "unit": "nM"},
      {"measurement": "EC50", "setting": "Pf3D7 cells; read-out: EC50 Pf3D7 cells", "value": 59, "unit": "nM"}
    ]},
    {"compound": "CCNC(=O)c1[nH]c(C)c(Cc2ccc(C(F)(F)F)nc2)c1C", "note": "[Compound 16, N-Ethyl-3,5-dimethyl-4-((6-(trifluoromethyl)pyridin-3-yl)methyl)-1H-pyrrole-2-carboxamide]", "values": [
      {"measurement": "IC50", "setting": "PfDHODH; potency on PfDHODH", "value": "< 50", "unit": "nM"},
      {"measurement": "EC50", "setting": "Pf3D7 cells; [17]", "value": "< 50", "unit": "nM"}
    ]},
    {"compound": "CCOC(=O)c1[nH]c(C)c(Cc2ccc(OCC)cc2)c1C", "note": "[Compound 3, Ethyl 4-(4-ethoxybenzyl)-3,5-dimethyl-1H-pyrrole-2-carboxylate]", "values": [
      {"measurement": "EC50", "setting": "Pf3D7 cells; [16]", "value": 230, "unit": "nM"},
      {"measurement": "EC50", "setting": "Pf3D7 cells; read-out: EC50 Pf3D7 cells", "value": 250, "unit": "nM"}
    ]},
    {"compound": "Cc1[nH]c(C(=O)NC2CCC2)c(C)c1Cc1ccc(C(F)(F)F)nc1", "note": "[Compound 19, N-Cyclobutyl-3,5-dimethyl-4-((6-(trifluoromethyl)pyridin-3-yl)methyl)-1H-pyrrole-2-carboxamide]", "values": [
      {"measurement": "IC50", "setting": "PfDHODH; IC50 PfDHODH", "value": "72 nM and 42 nM"}
    ]},
    {"compound": "Cc1[nH]c(C(=O)NC2CC2)c(C)c1Cc1ccc(C(F)(F)F)nc1", "note": "[Compound 18, N-Cyclopropyl-3,5-dimethyl-4-((6-(trifluoromethyl)pyridin-3-yl)methyl)-1H-pyrrole-2-carboxamide]", "values": [
      {"measurement": "EC50", "setting": "Pf3D7 cells; [17]", "value": "< 50", "unit": "nM"}
    ]},
    {"compound": "Cc1[nH]c(C(=O)NC2CCC2)c(C)c1Cc1ccc(C(F)(F)F)cn1", "note": "[Compound 25, N-Cyclobutyl-3,5-dimethyl-4-((5-(trifluoromethyl)pyridin-2-yl)methyl)-1H-pyrrole-2-carboxamide]", "values": [
      {"measurement": "EC50", "setting": "Pf3D7 cells; [16]", "value": 470, "unit": "nM"},
      {"measurement": "EC50", "setting": "Pf3D7 cells; read-out: EC50 Pf3D7 cells", "value": 680, "unit": "nM"}
    ]},
    {"compound": "Cc1c(Cc2ccc(C(F)(F)F)cc2Cl)c[nH]c1C(=O)NC1CC1", "note": "[Compound 66, 4-(2-chloro-4-(trifluoromethyl)benzyl)-N-cyclopropyl-3-methyl-1H-pyrrole-2-carboxamide]", "values": [
      {"measurement": "EC50", "setting": "Pf3D7 cells; [17]", "value": "< 30", "unit": "nM"}
    ]}
  ]
}
